Where two headings read alike, the source gives them in different places.
Assays:
Format in all cases: cell-based
[1] = system: ovarian cancer (4 cell lines); assay: CellTiter-Glo Viability Assay, ovarian cancer; details: Homo sapiens, inhibition of cancer cell proliferation
[2] = system: pancreatic cancer (8 cell lines); assay: CellTiter-Glo Viability Assay, pancreatic cancer; details: Homo sapiens, inhibition of cancer cell proliferation
[3] = system: liver cancer (3 cell lines); assay: CellTiter-Glo Viability Assay, liver cancer; details: Homo sapiens, inhibition of cancer cell proliferation
[4] = system: colorectal cancer (6 cell lines); assay: CellTiter-Glo Viability Assay, colorectal cancer; details: Homo sapiens, inhibition of cancer cell proliferation
[5] = system: T47D; assay: CellTiter-Glo Viability Assay, breast cancer; details: Homo sapiens, 96 h, breast cancer, four days, read-out: EC50
[6] = system: MDA-MB-231-Luc; assay: CellTiter-Glo Viability Assay, breast cancer; details: Homo sapiens, 96 h; MDA-MB-231-Luc, breast cancer, four days; read-out: EC50
[7] = system: HCC1599; assay: CellTiter-Glo Viability Assay, breast cancer; details: Homo sapiens, 96 h; HCC1599, breast cancer, four days; read-out: EC50
[8] = system: DU4475; assay: CellTiter-Glo Viability Assay, breast cancer; details: Homo sapiens, DU-4475, 96 h; DU4475, breast cancer, four days; read-out: EC50
[9] = system: MCF7; assay: CellTiter-Glo Viability Assay, breast cancer; details: Homo sapiens, 96 h; MCF7, breast cancer, four days; read-out: EC50
[10] = system: BT-549; assay: CellTiter-Glo Viability Assay, breast cancer; details: Homo sapiens, 96 h; BT-549, breast cancer, four days; read-out: EC50
[11] = system: CAMA1; assay: CellTiter-Glo Viability Assay, breast cancer; details: Homo sapiens, CAMA-1, 96 h; CAMA1, breast cancer, four days; read-out: EC50
[12] = system: ZR-75-1; assay: CellTiter-Glo Viability Assay, breast cancer; details: Homo sapiens, 96 h; ZR-75-1, breast cancer, four days; read-out: EC50
[13] = system: lung cancer (4 cell lines); assay: CellTiter-Glo Viability Assay, lung cancer; details: Homo sapiens, inhibition of cancer cell proliferation
[14] = system: all 50 cell lines; assay: CellTiter-Glo Viability Assay, average across all cell lines; details: Homo sapiens; across all 50 cell lines; read-out: average EC50 for inhibition of cancer cell proliferation
Method in brief: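 Cancer cell lines of several tumour types plated at 300-3,000 cells/well and exposed to compound in duplicate for four days at 37° C, 5% CO2, with DMSO-treated controls. Viability read by CellTiter-Glo luminescence (ATP content); EC50 derived from dose-response curves.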

[15] = system: prostate cancer (5 cell lines); assay: CellTiter-Glo Viability Assay, prostate cancer; details: Homo sapiens
[16] = system: haematopoietic & lymphoid tumors (13 cell lines); assay: CellTiter-Glo Viability Assay, haematopoietic & lymphoid tumors; details: Homo sapiens, inhibition of cancer cell proliferation

c1cc2cc(c1)-c1cncc3[nH]c(nc13)-c1n[nH]c3ccc(cc13)-c1cncc(c1)CNC2 [Compound 54]
EC50 ([1]; PA-1, PA1 cell line, read-out: Ovarian cancer, EC50 (μM) PA1): 0.147 µM | EC50 ([1]; TOV112D, TOV-112D cell line, read-out: Ovarian cancer, EC50 (μM) TOV-112D): 0.065 µM | EC50 ([1]; OV-90 cell line, read-out: Ovarian cancer, EC50 (μM) OV-90): 0.532 µM | EC50 ([1]; OVCAR-3 cell line, read-out: Ovarian cancer, EC50 (μM) OVCAR-3): 0.037 µM | EC50 ([2]; BXPC-3, BxPC3 cell line, read-out: Pancreatic cancer, EC50 BxPC3): 361 nM | EC50 ([2]; CAPAN-1, Capan1 cell line, read-out: Pancreatic cancer, EC50 Capan1): 569 nM | EC50 ([2]; Capan-2, Capan2 cell line, read-out: Pancreatic cancer, EC50 Capan2): 94 nM | EC50 ([2]; MIA PaCa-2 cell line, read-out: Pancreatic cancer, EC50 MIA PaCa-2): 41 nM | EC50 ([2]; PANC 05.04 cell line, read-out: Pancreatic cancer, EC50 PANC 05.04): 453 nM | EC50 ([2]; PANC-1 cell line, read-out: Pancreatic cancer, EC50 PANC-1): 2680 nM | EC50 ([2]; UPAFII cell line, read-out: Pancreatic cancer, EC50 UPAFII): 259 nM | EC50 ([3]; SNU-398, SNU398 cell line, read-out: Liver cancer, EC50 SNU398): 21 nM | EC50 ([3]; HEPG2 cell line, read-out: Liver cancer, EC50 HEPG2): 377 nM | EC50 ([3]; PLC/PRF/5 cell line, read-out: Liver cancer, EC50 PLC/PRF/5): 1770 nM | EC50 ([4]; HCT-116, HCT116 cell line, read-out: Colorectal cancer, EC50 (μM) HCT116): 0.056 µM | EC50 ([4]; HT-29, HT29 cell line, read-out: Colorectal cancer, EC50 (μM) HT29): 1.28 µM | EC50 ([4]; SW-620, SW620 cell line, read-out: Colorectal cancer, EC50 (μM) SW620): 0.041 µM | EC50 ([4]; DLD-1 cell line, read-out: Colorectal cancer, EC50 (μM) DLD-1): 0.136 µM | EC50 ([4]; SW48 cell line, read-out: Colorectal cancer, EC50 (μM) SW48): 0.049 µM | EC50 ([4]; SW480 cell line, read-out: Colorectal cancer, EC50 (μM) SW480): 0.042 µM | EC50 [5]: 167 nM | EC50 [6]: 153 nM | EC50 [7]: 85 nM | EC50 [8]: 57 nM | EC50 [9]: 794 nM | EC50 [10]: 75 nM | EC50 [11]: 167 nM | EC50 [12]: 145 nM | EC50 ([13]; A-427, A427 cell line, read-out: Lung cancer, EC50 (μM) A427): 0.04 µM | EC50 ([13]; HCC78, HCC-78 cell line, read-out: Lung cancer, EC50 (μM) HCC-78): 0.225 µM | EC50 ([13]; NCI-H460 cell line, read-out: Lung cancer, EC50 (μM) NCI-H460): > 3.5 µM | EC50 ([13]; NCI-H522 cell line, read-out: Lung cancer, EC50 (μM) NCI-H522): 0.04 µM | EC50 [14]: 453 nM | EC50 ([15]; DU-145, read-out: Prostate cancer EC50 Du-145): 98 nM | EC50 ([15]; PC-3, PC3 cell line, inhibition of cancer cell proliferation, read-out: Prostate cancer EC50 PC3): 55 nM | EC50 ([15]; 22Rv1 cell line, inhibition of cancer cell proliferation, read-out: Prostate cancer EC50 22Rv1): 117 nM | EC50 ([15]; LNCap clone FGC cell line, inhibition of cancer cell proliferation, read-out: Prostate cancer EC50 LNCap clone FGC): 234 nM | EC50 ([15]; VCaP (Sigma) cell line, inhibition of cancer cell proliferation, read-out: Prostate cancer EC50 VCaP (Sigma)): 162 nM | EC50 ([16]; DND41, DND-41 cell line, read-out: Haematopoietic & Lymphoid tumors, EC50 (μM) DND-41): 0.031 µM | EC50 ([16]; MV4-11, MV-4-11 cell line, read-out: Haematopoietic & Lymphoid tumors, EC50 (μM) MV-4-11): 0.005 µM | EC50 ([16]; Rec1, REC-1 cell line, read-out: Haematopoietic & Lymphoid tumors, EC50 (μM) REC-1): 0.109 µM | EC50 ([16]; SU-DHL-4, SUDHL4 cell line, read-out: Haematopoietic & Lymphoid tumors, EC50 (μM) SUDHL4): 0.036 µM | EC50 ([16]; HL-60 cell line, read-out: Haematopoietic & Lymphoid tumors, EC50 (μM) HL-60): 0.121 µM | EC50 ([16]; JM1 cell line, read-out: Haematopoietic & Lymphoid tumors, EC50 (μM) JM1): 0.026 µM | EC50 ([16]; JURKAT, Clone E6-1 cell line, read-out: Haematopoietic & Lymphoid tumors, EC50 (μM) JURKAT, Clone E6-1): 0.17 µM | EC50 ([16]; JeKo-1 cell line, read-out: Haematopoietic & Lymphoid tumors, EC50 (μM) JeKo-1): 0.017 µM | EC50 ([16]; KASUMI-1 cell line, read-out: Haematopoietic & Lymphoid tumors, EC50 (μM) KASUMI-1): 0.058 µM | EC50 ([16]; Loucy cell line, read-out: Haematopoietic & Lymphoid tumors, EC50 (μM) Loucy): 0.041 µM | EC50 ([16]; MOLT-4 cell line, read-out: Haematopoietic & Lymphoid tumors, EC50 (μM) MOLT-4): 0.254 µM | EC50 ([16]; TF-1 cell line, read-out: Haematopoietic & Lymphoid tumors, EC50 (μM) TF-1): 0.108 µM | EC50 ([16]; TOLEDO cell line, read-out: Haematopoietic & Lymphoid tumors, EC50 (μM) TOLEDO): 0.022 µM
